Measured values taken from article PMC9574860, “Chemical Toolkit for PARK7: Potent, Selective, and High-Throughput” (Journal of Medicinal Chemistry, 2022).
“Also recorded” adds a separate entry of the source.

How the values were obtained:
DUBs = assay: DUB activity profiling in HEK293T cell lysate with general DUB probe Rho-Ub-PA; assay type: biochemical; conditions: compound 5 μM 1 h 37 °C, then Rho-Ub-PA 30 min, Figure S5
Procedure: Due to the structural similarity of PARK7 inhibitor JYQ-88 and UCHL1 inhibitor 8RK64 and the fact that many cyanimide-containing compounds have been identified as DUB inhibitors,[35],[37] we investigated the inhibitory potential of JYQ-88 and JYQ-92 toward DUBs. After treating the HEK293T cell lysate with JYQ-88 and JYQ-92, along with UCHL1 inhibitors, 6RK73 and 8RK64 as controls,[38] the remaining activity of DUBs was determined using the general DUB probe Rho-Ub-PA (Figure S5).[39]
Figure S5. Fluorescence labeling of DUBs to investigate their remaining activity by Rh-Ub-
PA after the treatment with PARK7 inhibitor JYQ-88 and probe JYQ-92. UCHL1 inhibitors,
6RK73 and 8RK64, were used as a control. HEK293T cell lysate was treated with 5 μM final
MOPS SDS running buffer (Novex, NuPAGE) and visualized by fluorescence scanning on a
Typhoon FLA 9500 (GE Healthcare Life Sciences) using a Rhodamine channel (λex/em
(1 picture or pasted object on this page, not shown here)

PARK7 [1] = target: T1, PARK7 (Homo sapiens, UniProt Q99497); assay: Gel-based competition assay in HEK293T cell lysate with probe JYQ-92; assay type: biochemical; parameters: GST (N, cleaved yes); made in house; host or cells: E. coli BL21(DE3) Rosetta2; conditions: inhibitor 1 h 37 °C, then JYQ-92 1 μM 30 min, Figure 4E
T1 sequence (Q99497 1-189): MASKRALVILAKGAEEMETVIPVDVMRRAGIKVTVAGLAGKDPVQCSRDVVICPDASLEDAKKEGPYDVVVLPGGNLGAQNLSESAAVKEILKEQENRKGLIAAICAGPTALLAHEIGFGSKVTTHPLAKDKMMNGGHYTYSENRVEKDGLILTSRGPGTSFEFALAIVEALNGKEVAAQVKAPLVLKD
Excerpt: We next assessed whether we could measure the inhibitory activity of an inhibitor against PARK7 in a cell lysate using JYQ-92 to label the remaining activity of PARK7. […] The disappearance of the labeling band is a measure for inhibition.

PARK7 [2] = target: T1, PARK7; assay: FP assay with Rhodamine110 probe JYQ-107 (IC50 and hit validation); assay type: binding; parameters: GST (N, cleaved yes); made in house; host or cells: E. coli BL21(DE3) Rosetta2; conditions: PARK7 0.2 μM, 1 h preincubation, JYQ-107 20 nM
PARK7 [3] = target: T1, PARK7; assay: Gel-based competition assay with probe 8RK59, PARK7 band; assay type: biochemical; parameters: GST (N, cleaved yes); made in house; host or cells: E. coli BL21(DE3) Rosetta2
Procedure: To assess the inhibitory potency and selectivity of these compounds toward PARK7 and UCHL1, we performed a gel-based competition assay (Figure 3A).[36] A mixture of equal amounts of PARK7 and UCHL1 (1 μM) was treated with each of the synthesized compounds (2 μM) for 1 h, followed by incubation with fluorescent probe 8RK59 (2 μM) for 30 min. Samples were resolved by SDS-PAGE, and the gel was scanned for fluorescence. Inhibition of PARK7 or UCHL1 is reflected by the disappearance of their corresponding bands (Figure 3B). […] The inhibition potential of JYQ-88 against PARK7 was assessed in a similar assay where PARK7 was incubated with a serial dilution of JYQ-88 before treatment with probe 8RK59 (Figure 3C). A clear inhibition is visible at 0.5 μM, and full inhibition is achieved between 1 and 2 μM. […] The selectivity of JYQ-88 between UCHL1 and PARK7 was further confirmed in a direct competition assay between equal amounts of PARK7 and UCHL1 (Figure 3F). PARK7 inhibition was observed starting from 0.5 μM JYQ-88, whereas inhibition of UCHL1 was only detected at 20 μM. Since JYQ-88 and 8RK64 are enantiomers, we assumed that the interactions with PARK7 should be similar. To investigate how the chiral center influences the selectivity, we solved the crystal structure of the PARK7−JYQ-88 complex with 1.42 Å resolution (Figure 3G, Table S1, PDB 7PA3). The global positioning of the inhibitor in between the two α-helices was similar to that for 8RK64. […] This way, the thiazolo-pyridine part of JYQ-88 is bound in a similar manner as 8RK64 and the earlier observed interactions are largely the same. The formation of the isothiourea moiety, stabilized by the interaction with Glu18, and the interaction between the thiazole amine and the amide NH2 of the Asn76 side chain are still present. However, the interaction between the azidoacetyl carbonyl with the Leu128 backbone carbonyl can no longer be observed due to the rotation of the azidoacetyl moiety. The Lys132 residue also seems to have rotated (compared to Figure 2C).
The assay was performed in Tris buffer as described above.

Compound: N#CN1CC[C@@H](C(=O)Nc2nc3c(s2)CN(C(=O)CN=[N+]=[N-])CC3)C1 [JYQ-88, (R)-N-(5-(2-Azidoacetyl)-4,5,6,7-tetrahydrothiazolo[5,4-c]pyridin-2-yl)-1-cyanopyrrolidine-3carboxamide]
- Effect on remaining DUB activity (Rho-Ub-PA labeled bands) (DUBs): no influence on DUB activity; also recorded: without showing any effect
- Inhibitor concentration at which the PARK7 labeling band intensity is already decreased (PARK7 [1]): 0.1 µM
- Inhibitor concentration from which the PARK7 labeling band has nearly disappeared (PARK7 [1]): 1 µM
- IC50 (PARK7 [2]): 240 nM
- Concentration at which clear inhibition of PARK7 is visible (PARK7 [3]; PARK7 1 μM, serial dilution of inhibitor, then 8RK59, Figure 3C): 0.5 µM
- Inhibition of PARK7 (disappearance of 8RK59-labeled band) (PARK7 [3]; compound 2 μM, 1 h, PARK7 and UCHL1 1 μM each, then 8RK59 2 μM 30 min, Figure 3B): almost complete inhibition
- Concentration from which PARK7 inhibition was observed (PARK7 [3]; direct competition, equal amounts of PARK7 and UCHL1, Figure 3F): 0.5 µM
- Inhibitory potency toward PARK7 compared with 8RK64 (PARK7 [3]; gel-based PARK7 inhibition assays, Figures 3C and S2): slightly more potent
